Source: PubChem BioAssay AID248 (DTP/NCI, 2004)
Values joined by “and” are separate entries in the source; they are usually repeats but may differ in a detail not shown here. Equal values may be shown once. Inconclusive results and toxic doses are left out. Cut-off read from the data, not from the text of the source: active = T/C of 150% or more; inactive = T/C below 125%.

System: L1210 leukemia ip in BDF1 mice, survival T/C
Experiment: NCI In Vivo Anticancer Drug Screen. Data for tumor model L1210 Leukemia (intraperitoneal) in B6D2F1 (BDF1) mice
Conditions: endpoint: mean survival time, higher = longer survival
Summary of the method: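 Transplanted-tumor mice were given test agent; controls received vehicle only. Survival readings from the two groups were divided (treated over control).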

[1] = dose: 100.0 mg/kg/injection, schedule: Q04DX003 (ip), vehicle: Klucel (hydroxypropylcellulose) (HPC)
[2] = dose: 200.0 mg/kg/injection, schedule: Q04DX003 (ip), vehicle: Klucel (hydroxypropylcellulose) (HPC)
[3] = dose: 400.0 mg/kg/injection, schedule: Q04DX003 (ip), vehicle: Klucel (hydroxypropylcellulose) (HPC)
[4] = dose: 100.0 mg/kg/injection, schedule: Q01DX001 (ip), vehicle: saline
[5] = dose: 400.0 mg/kg/injection, schedule: Q01DX001 (ip), vehicle: saline
[6] = dose: 100.0 mg/kg/injection, schedule: Q01DX001 (ip), vehicle: carboxymethylcellulose (CMC)
[7] = dose: 200.0 mg/kg/injection, schedule: Q01DX001 (ip), vehicle: carboxymethylcellulose (CMC)
[8] = dose: 400.0 mg/kg/injection, schedule: Q01DX001 (ip), vehicle: carboxymethylcellulose (CMC)
[9] = dose: 100.0 mg/kg/injection, schedule: Q04DX003 (ip), vehicle: saline with Tween-80
[10] = dose: 200.0 mg/kg/injection, schedule: Q04DX003 (ip), vehicle: saline with Tween-80
[11] = dose: 400.0 mg/kg/injection, schedule: Q04DX003 (ip), vehicle: saline with Tween-80
[12] = dose: 100.0 mg/kg/injection, schedule: Q04DX003 (ip), vehicle: saline
[13] = dose: 200.0 mg/kg/injection, schedule: Q04DX003 (ip), vehicle: saline
[14] = dose: 400.0 mg/kg/injection, schedule: Q04DX003 (ip), vehicle: saline
[15] = dose: 50.0 mg/kg/injection, schedule: Q01DX001 (ip), vehicle: carboxymethylcellulose (CMC)

Measured: T/C

COC1=CC(C)C2CC3OC(O)CC4C(C)=C(OC)C(=O)C(C2(C)C1=O)C34C (configuration not stated)
inactive: dose: 100.0 mg/kg/injection, schedule: Q01DX001 (ip), vehicle: Klucel (hydroxypropylcellulose) (HPC) 102 % of control | dose: 100.0 mg/kg/injection, schedule: Q01DX009 (ip), vehicle: Klucel (hydroxypropylcellulose) (HPC) 91 % of control | [1] 96 % of control | dose: 200.0 mg/kg/injection, schedule: Q01DX001 (ip), vehicle: Klucel (hydroxypropylcellulose) (HPC) 105 % of control | dose: 200.0 mg/kg/injection, schedule: Q01DX009 (ip), vehicle: Klucel (hydroxypropylcellulose) (HPC) 100 % of control | [2] 97 % of control | dose: 400.0 mg/kg/injection, schedule: Q01DX001 (ip), vehicle: Klucel (hydroxypropylcellulose) (HPC) 105 % of control | dose: 400.0 mg/kg/injection, schedule: Q01DX009 (ip), vehicle: Klucel (hydroxypropylcellulose) (HPC) 94 % of control | [3] 96 % of control

C(#CP(c1ccccc1)c1ccccc1)P(c1ccccc1)c1ccccc1
inactive: dose: 50.0 mg/kg/injection, schedule: Q04DX003 (ip), vehicle: Klucel (hydroxypropylcellulose) (HPC) 98 % of control | [1] 101 % of control | [2] 102 % of control

C=CCC(C#N)(C(=O)OCC)/C(C)=C/C (configuration not stated)
inactive: dose: 75.0 mg/kg/injection, schedule: Q01DX001 (ip), vehicle: other 100 % of control | dose: 150.0 mg/kg/injection, schedule: Q01DX001 (ip), vehicle: other 103 % of control | dose: 300.0 mg/kg/injection, schedule: Q01DX001 (ip), vehicle: other 97 % of control

Cc1ccccc1N1CCN(c2c3c(nc4ccccc24)CCCCC3)CC1
inactive: [4] 93 % of control | [5] 93 % of control

CC(=O)Nc1cccc(OCCOc2ccc([N+](=O)[O-])cc2)c1
inactive: [6] 92 % of control | [7] 92 % of control | [8] 90 % of control

O=COCCN(C=O)c1ccc(C(=O)O)cc1
inactive: dose: 75.0 mg/kg/injection, schedule: Q01DX009 (ip), vehicle: Klucel (hydroxypropylcellulose) (HPC) 92 % of control | dose: 150.0 mg/kg/injection, schedule: Q01DX009 (ip), vehicle: Klucel (hydroxypropylcellulose) (HPC) 87 % of control | dose: 300.0 mg/kg/injection, schedule: Q01DX009 (ip), vehicle: Klucel (hydroxypropylcellulose) (HPC) 88 % of control

CCOC(=O)c1ccccc1N(O)C(=O)Nc1ccc(C)cc1
inactive: [9] 97 % of control | [10] 105 % of control | [11] 109 % of control

CCOC(Nc1cc(Cl)ccc1Cl)C(=O)c1ccccc1 (configuration not stated)
inactive: [4] 97 % of control | dose: 200.0 mg/kg/injection, schedule: Q01DX001 (ip), vehicle: saline 100 % of control | [5] 96 % of control

C[C@]12C[C@H](O)[C@H]3[C@@H](CCC4=CC(=O)CC[C@@]43C)[C@@H]1CC[C@@H]2C(=O)CF
inactive: dose: 50.0 mg/kg/injection, schedule: Q01DX Z (sc), vehicle: steriod suspending solution 95 % of control | dose: 250.0 mg/kg/injection, schedule: Q01DX Z (sc), vehicle: steriod suspending solution 102 % of control | dose: 500.0 mg/kg/injection, schedule: Q01DX Z (sc), vehicle: steriod suspending solution 98 % of control

OCC1COc2ccccc2O1 (configuration not stated)
inactive: [12] 101 % of control | [13] 106 % of control | [14] 103 % of control

CC(=O)OCC(=O)c1cc(OC(C)=O)c(OC(C)=O)c(OC(C)=O)c1
inactive: [4] 91 % of control | [5] 94 % of control

CC(C)(C)CC(CC(C)(C)C)C(=O)O
inactive: dose: 106.0 mg/kg/injection, schedule: Q01DX Z (ip), vehicle: other 94 % of control | dose: 160.0 mg/kg/injection, schedule: Q01DX Z (ip), vehicle: other 102 % of control | dose: 240.0 mg/kg/injection, schedule: Q01DX Z (ip), vehicle: other 96 % of control and 103 % of control | dose: 360.0 mg/kg/injection, schedule: Q01DX Z (ip), vehicle: other 101 % of control and 89 % of control | dose: 540.0 mg/kg/injection, schedule: Q01DX Z (ip), vehicle: other 86 % of control

Cn1c(C(N)=O)cc(=O)n1-c1ccc([N+](=O)[O-])cc1
inactive: [1] 101 % of control | [2] 97 % of control | [3] 101 % of control

CCN(CC)c1ccc(Sc2ccc([N+](=O)[O-])cc2[N+](=O)[O-])cc1
inactive: [6] 88 % of control | [7] 92 % of control | [8] 92 % of control

CCCCCC(=O)N1CCCCC1C (configuration not stated)
inactive: [15] 97 % of control | dose: 50.0 mg/kg/injection, schedule: Q01DX009 (ip), vehicle: carboxymethylcellulose (CMC) 95 % of control and 97 % of control | dose: 50.0 mg/kg/injection, schedule: Q04DX002 (ip), vehicle: carboxymethylcellulose (CMC) 96 % of control and 98 % of control | dose: 50.0 mg/kg/injection, schedule: Q04DX003 (ip), vehicle: carboxymethylcellulose (CMC) 98 % of control | [6] 103 % of control | dose: 100.0 mg/kg/injection, schedule: Q01DX009 (ip), vehicle: carboxymethylcellulose (CMC) 96 % of control and 98 % of control | dose: 100.0 mg/kg/injection, schedule: Q04DX002 (ip), vehicle: carboxymethylcellulose (CMC) 97 % of control and 109 % of control and 92 % of control | dose: 100.0 mg/kg/injection, schedule: Q04DX003 (ip), vehicle: carboxymethylcellulose (CMC) 93 % of control | [7] 90 % of control | dose: 200.0 mg/kg/injection, schedule: Q04DX002 (ip), vehicle: carboxymethylcellulose (CMC) 100 % of control and 86 % of control | dose: 200.0 mg/kg/injection, schedule: Q04DX003 (ip), vehicle: carboxymethylcellulose (CMC) 95 % of control

CC(NCCO)C(O)c1ccccc1 (configuration not stated)
inactive: dose: 100.0 mg/kg/injection, schedule: Q01DX009 (ip), vehicle: saline 94 % of control | [12] 95 % of control | dose: 200.0 mg/kg/injection, schedule: Q01DX009 (ip), vehicle: saline 94 % of control | [13] 104 % of control | dose: 400.0 mg/kg/injection, schedule: Q01DX009 (ip), vehicle: saline 103 % of control | [14] 97 % of control

Cn1cnc(/C(N)=N\O)c1N
inactive: dose: 25.0 mg/kg/injection, schedule: Q01DX005 (ip), vehicle: saline 102 % of control | dose: 50.0 mg/kg/injection, schedule: Q01DX005 (ip), vehicle: saline 113 % of control | dose: 100.0 mg/kg/injection, schedule: Q01DX005 (ip), vehicle: saline 107 % of control

O=NN(CCCCl)C(=O)Nc1ccc(NC(=O)N(CCCCl)N=O)cc1
inactive: dose: 12.5 mg/kg/injection, schedule: Q01DX001 (ip), vehicle: carboxymethylcellulose (CMC) 111 % of control | dose: 25.0 mg/kg/injection, schedule: Q01DX001 (ip), vehicle: carboxymethylcellulose (CMC) 109 % of control | [15] 106 % of control | [6] 117 % of control | [7] 111 % of control | dose: 300.0 mg/kg/injection, schedule: Q01DX001 (ip), vehicle: carboxymethylcellulose (CMC) 111 % of control | [8] 106 % of control | dose: 500.0 mg/kg/injection, schedule: Q01DX001 (ip), vehicle: carboxymethylcellulose (CMC) 106 % of control | dose: 600.0 mg/kg/injection, schedule: Q01DX001 (ip), vehicle: carboxymethylcellulose (CMC) 109 % of control | dose: 800.0 mg/kg/injection, schedule: Q01DX001 (ip), vehicle: carboxymethylcellulose (CMC) 112 % of control | dose: 1000.0 mg/kg/injection, schedule: Q01DX001 (ip), vehicle: carboxymethylcellulose (CMC) 114 % of control

Nc1ncnc(N)c1NC(=O)c1ccc(OCCCCOc2ccccc2)c(Cl)c1
inactive: [9] 101 % of control | [10] 102 % of control | [11] 96 % of control
